Literature values, collected in patent publication US20150190322A1, “COMPOSITION, METHOD AND KIT FOR ENHANCING HAIR” (PHARMA PATENT HOLDING INC., priority 2009, published 2015).

Settings: in some patients, during use for reduction of intraocular pressure

For `CC(C)OC(=O)CCC/C=C\C[C@@H]1[C@@H](CC[C@@H](O)CCc2ccccc2)[C@H](O)C[C@@H]1O` [Latanoprost, isopropyl-(Z)-7[(1R, 2R, 3R, 5S)3,5-dihydroxy-2-[(3R)-3-hydroxy-5-phenylp-entyl]cyclopentyl]-5-heptenoate], the “pigmentation and growth of eyelashes” value is given as “increasing pigmentation and growth of eyelashes”.
